From US20180055888A1, “COMPOSITIONS AND METHODS FOR ENHANCING THE THERAPEUTIC POTENTIAL OF STEM CELLS” (priority 2013, published 2018)

Tests used:
[1] = system: mouse model for hind limb peripheral ischemia; assay: In vivo assessment of limb function (graded scale), mouse hind limb ischemia model; set-up: species or system Mouse/Athymic Nude; conditions: Day 35, imputed data, group median, rank 1 best of 10 groups
Excerpt: Disclosed herein is the testing of BM MSCs in a mouse model for hind limb peripheral ischemia. Peripheral artery disease (PAD) is a form of peripheral vascular diseases (PVD) in which there are partial or total blockage of blood supply to a limb, usually the leg, leading to impaired blood flow and hypoxia in the tissue. When PAD advances it reaches the stage of critical limb ischemia (CLI) with skin ulcerations, gangrene and unavoidable amputations. […]
In vivo assessment of limb function and Ischemic damage. Semi-quantitative assessment of impaired use of the ischemic limb was performed once a week post-surgery using the following scale (Stabile et al., Circulation. 2003; 15; 108{2):205-210). […]
In vivo assessment of limb function. Semi-quantitative assessment of impaired use of the ischemic limb was performed on days 7 up to 35 by using graded functional scales. […]
(§1) In further analyses the imputation of missing data is done in the following way: Blood Flow (%): Value of the first measurement after the surgery (assumption is that treatment failed so that there is no improvement beyond what was observed immediately after surgery); Ischemic Severity Score: 4=“Total Hind-Limb Loss” (the worst score possible); Limb Function 3=“Dragging of foot” (the worst score possible); Weight (g): The animal's lowest weight at any of the points measured up to and including the day of amputation.

[2] = system: mouse model for hind limb peripheral ischemia; assay: Ranking analysis / overall evaluation of all parameters, mouse hind limb ischemia model; assay type: in vivo, Mouse/Athymic Nude; conditions: for Factor 2: Difference between ranks of adjacent-ranked groups / Factor by which average rank differs from the top-ranked group (4) / Average Rank: Day 35, imputed data; for Average Rank: average over Blood Flow, Limb Function, Ischemic Severity Score
Excerpt: Study end points were: Clinical score; Body weight measurements; Blood flow measurements Ranking analysis: Each group was given a ranking from 1 to 10 on each of the first 3 endpoints measured (% Blood Flow, Limb Function and Ischemic Severity Score). Rank=1 is highest and Rank=10 is lowest. When two groups are tied, both receive the same rank “in the middle”; e.g. if two groups were tied in Rank=4, both received the score 4.5 (twice of which is the sum of ranks 4 and 5). For each endpoint, the median was computed for each group (the median was used to ensure that extreme value will not affect results). On each endpoint, groups were sorted by median and each given its respective rank. The average rank was computed for each group over all endpoints
While paired comparisons were done, central results are presented in a way in that they are statistically relevant and can be clearly depicted in graphics. Data are consistent across endpoints and are consistent across different analysis. To obtain this picture we eliminated Weight from consideration. […] Each group was ranked on remaining 3 endpoints on day 35 and assessed Average Rank of groups—a measure combining results from all endpoints.
Evaluating all Parameters Concurrently at Day 35. Procedure: For each parameter (Blood Flow (%), Limb Function and Ischemic Severity Score) the median in the group across all animals was computed. All the groups based on their median from 1 to 10, where 1 is best, were ranked on each of the following parameters: Blood Flow {%)—highest is 1, lowest is 10; Limb Function—highest is 10, lowest is 1 (worst category is 3, best is 0); Ischemic Severity Score—highest is 10, lowest is 1 (worst category is 4, best is 0); Finally, for each group we computed the average rank over the three parameters.

[3] = system: mouse model for hind limb peripheral ischemia; assay: Macroscopic evaluation of ischemic severity (morphological grades for necrotic area), mouse hind limb ischemia model; assay type: in vivo, Mouse/Athymic Nude; conditions: Day 35, imputed data, group median, rank 1 best of 10 groups
Excerpt: (§2) Disclosed herein is the testing of BM MSCs in a mouse model for hind limb peripheral ischemia. Peripheral artery disease (PAD) is a form of peripheral vascular diseases (PVD) in which there are partial or total blockage of blood supply to a limb, usually the leg, leading to impaired blood flow and hypoxia in the tissue. When PAD advances it reaches the stage of critical limb ischemia (CLI) with skin ulcerations, gangrene and unavoidable amputations. One of the most promising innovative treatments for diabetic vascular complications is stem cell-based products that enhance angiogenesis (TRefl-3) Hind limb ischemia animal models have been used to evaluate various therapeutic approaches addressing stem cell transplantation.
Under anesthesia, the mouse was placed with ventral side up. A 0.5-1.0 cm incision was made in the skin in the inguinal area. The femoral artery was ligated twice with 6-0 silk thread and transected between the ligatures. […]
(§3) Body weight was measured on study day −1 prior to the surgery and once weekly thereafter. Blood flow measurement: Blood flow in legs from both sides was measured with a non-contact Laser Doppier before surgery and on days: 1, 3, 7, 14, 21, 28 and 35 post operation. Blood flow measurements were expressed as the ratio of the flow in the ischemic limb to that in the normal limb (Goto et al. Tokai J Exp Clin Med., Vol. 31, No. 3, pp. 128-132, 2006). […]

[4] = system: mouse model for hind limb peripheral ischemia; assay: Animal disposition (amputations, completion of 35 days follow-up), mouse hind limb ischemia model; assay type: in vivo; conditions: for Completed % (completed 35 days follow-up) / Imputed % (amputation after day 14, attributed to treatment failure): % of animals of the group; for Completed N (completed 35 days follow-up) / Imputed N (amputation after day 14, attributed to treatment failure): number of animals of the group
Excerpt: A major problem in pre-clinical studies is often the high drop-out rate of animals due to treatment related failure (amputations after day 14 post surgery) or unrelated to treatment (e.g. death during anesthesia, or amputations before day 14 post surgery). Only a few animals had to be excluded from statistical analysis due to the latter reason.
as §2
Under anesthesia, the mouse was placed with ventral side up. A 0.5-1.0 cm incision was made in the skin in the inguinal area. The femoral artery was ligated twice with 6-0 silk thread and transected between the ligatures. The wound was closed with 4-0 silk thread and the mouse was allowed to recover.
On DAY 1, 24 hours post-surgery, each treated animal was injected intramuscular at two sites (the proximal and the distal side of the surgical wound) or intravenous into the tail vein. For intramuscular injection the animals were injected 50 μl at each site, total 100 μl per animal. For intravenous injection the animals were injected by 200 μl per animal.
as §1

[5] = system: mouse model for hind limb peripheral ischemia; assay: Blood flow measurement (non-contact Laser Doppler), mouse hind limb ischemia model; assay type: in vivo, Mouse/Athymic Nude; conditions: for Rank of treatment group, Blood Flow: Day 35, imputed data, group median, rank 1 best of 10 groups
Excerpt: as §2
Animal handling was according to the National Institute of Health (NIH) and the Association for Assessment and Accreditation of Laboratory Animal Care (AAALAC). Animals were housed in polysufone (PSU) cages (7-8/cage) measuring […] cm, with stainless steel top grill having facilities for pelleted food and drinking water in glass-clear polycarbonate bottle; bedding: steam sterilized clean paddy husk (Harlan, Sani-chip, Cat#: 106S8216) was used and bedding material was changed along with the cage at least twice a week. Animals were fed ad libitum a commercial rodent diet (Teklad Certified Global 18% Protein Diet cat #: 106S8216). Animals have free access to autoclaved and acidified drinking water (pH between 2.5 and 3.5) obtained from the municipality supply. Animals were housed under standard laboratory conditions, air conditioned and filtered (HEPA F6/6) with adequate fresh air supply (Minimum 15 air changes/hour). Animals were kept in a climate controlled environment. Temperatures range was 20-24° C. and RH range was 30-70% with 12 hours light and 12 hours dark cycle. Species/Strain: Mouse/Athymic Nude; Gender/Number/Age: Male/152/9-10 weeks; Source: Harlan Laboratories, Israel; Body weight: The average body weight was 28.4 g at study initiation (day 1). The minimum and maximum weights of the group were within a range of ±20% of group mean weight; Acclimation period: 5-10 days; Identification: Three position ear notching and cage cards. […] Surgery Day was defined as “DAY 0” in this study. On the day of surgery anesthesia was induced by 1.5 to 3.0% isofiurane, 1.5% N2O and 0.5% O2. […]
as §3

Cc1ccc2c(c1)C(=O)C1(O)CCN(c3ccccc3)C1=N2 (centres unmarked) [DMEM + BB, blebbistatin]
Rank of treatment group, Limb Function ([1]; im): 5 | Rank of treatment group, Limb Function ([1]; iv): 5 | overall efficacy in the model ([2]; conclusion over endpoints): no beneficial effect | Factor 2: Difference between ranks of adjacent-ranked groups ([2]; im): 0.8 | Factor by which average rank differs from the top-ranked group (4) ([2]; im): 4.7 | Average Rank ([2]; im): 5.8 | Factor 2: Difference between ranks of adjacent-ranked groups ([2]; iv): 0.0 | Factor by which average rank differs from the top-ranked group (4) ([2]; iv): 4.7 | Average Rank ([2]; iv): 5.8 | Rank of treatment group, Ischemic Severity Score ([3]; im): 6 | Rank of treatment group, Ischemic Severity Score ([3]; iv): 6 | Completed % (completed 35 days follow-up) ([4]; im): 82.4% | Imputed % (amputation after day 14, attributed to treatment failure) ([4]; im): 0% | Completed N (completed 35 days follow-up) ([4]; im): 14 | Imputed N (amputation after day 14, attributed to treatment failure) ([4]; im): 0 | Completed % (completed 35 days follow-up) ([4]; iv): 93.3% | Imputed % (amputation after day 14, attributed to treatment failure) ([4]; iv): 0% | Completed N (completed 35 days follow-up) ([4]; iv): 14 | Imputed N (amputation after day 14, attributed to treatment failure) ([4]; iv): 0 | regeneration of blood flow ([5]; blebbistatin alone, without cells, FIGS. 1A-B): no effect on the regeneration of blood flow | Rank of treatment group, Blood Flow ([5]; im): 6.5 | regeneration in blood flow over time ([5]; intramuscular, FIG. 1A): marginally recovery effects | Rank of treatment group, Blood Flow ([5]; iv): 6.5
